Data on seven compounds can be found in ChEMBL document CHEMBL1142641, “New isomalabaricane derivatives from a new species of Jaspis sponge collected at the Vanuatu islands” (J Nat Prod, 2000).

One may read the IC50 as the concentration that gives 50% inhibition. Low readings indicate higher potency, high ones lower potency.

A short description of this test: Cytotoxicity against mouse […] cells. In kind it is functional, cell-based.
Consider `COC(=O)[C@]1(C)[C@@H]2CC[C@]3(C)/C(=C(/C)C=O)C(=O)C[C@@H]3[C@@]2(C)CC[C@H]1OC(C)=O`, for which the 50% inhibitory concentration (IC50) was more than 3.3 µg/mL. Take `COC(=O)[C@]1(C)[C@@H]2CC[C@]3(C)\C(=C(C)/C=C/C=C(C)/C=C/C=O)C(=O)C[C@@H]3[C@@]2(C)CC[C@H]1OC(C)=O`: the IC50 was more than 3.3 µg/mL. Compound `COC(=O)[C@]1(C)[C@@H]2CC[C@]3(C)\C(=C(C)/C=C/C=C(\C)C=O)C(=O)C[C@@H]3[C@@]2(C)CC[C@H]1OC(C)=O` had an IC50 of more than 3.3 µg/mL. The figure for `COC(=O)[C@]1(C)[C@@H]2CC[C@]3(C)\C(=C(C)/C=C/C=C(\C)C(/C=C/C(C)(C)O)OC)C(=O)C[C@@H]3[C@@]2(C)CC[C@H]1OC(C)=O` (some centres not stated) [GLOBOSTELLATIC ACD B METHYL ESTER] is more than 3.3 µg/mL; for `COC(=O)[C@]1(C)[C@@H]2CC[C@]3(C)\C(=C(C)/C=C/C=C(C)/C=C/C(OC)C(C)(C)O)C(=O)C[C@@H]3[C@@]2(C)CC[C@H]1OC(C)=O` (some centres not stated) [GLOBOSTELLATIC ACD C METHYL ESTER] it is more than 3.3 µg/mL; for `COC(=O)/C(C)=C1\C(=O)C[C@@H]2[C@@]3(C)CC[C@@H](OC(C)=O)[C@](C)(C(=O)OC)[C@@H]3CC[C@]12C` [JASPIFEROIC ACID A DIMETHYL ESTER] it is more than 3.3 µg/mL.

Turning to `COC(=O)/C=C/C(C)=C1/C(=O)C[C@@H]2[C@@]3(C)CC[C@@H](OC(C)=O)[C@](C)(C(=O)OC)[C@@H]3CC[C@]12C` [JASPIFEROIC ACID B DIMETHYL ESTER], the half-maximal inhibitory concentration (IC50) was more than 3.3 µg/mL.
